Reference: patent US12441736B2, “KIF18A inhibitors” (AMGEN INC., priority 2018, dated 2025)

Target: T1, Recombinant human KIF18A (1-467 His-tagged) protein (Homo sapiens, UniProt Q8NI77)
T1 construct: Recombinant human KIF18A (1-467 His-tagged) protein; His; made in house
Assay: KIF18A Enzyme Assay: microtubule-stimulated ATPase activity (ADP-Glo)
Assay type: biochemical
Conditions: 30 nM KIF18A, 30 μg/mL pig microtubules, 75 μM ATP, ADP-Glo luminescence
Summary of the method: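 IC50 comes from a four-parameter logistic fit over a 22-point, 2-fold series, with ADP quantified by ADP-Glo luminescence. Reactions ran at room temperature: compound plus 30 nM KIF18A(1-467)-His for 15 min, then 75 μM ATP (Km) for 15 min. The buffer held pig microtubules at 30 μg/mL and 1 μM taxol.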

T1 sequence (Q8NI77 1-467): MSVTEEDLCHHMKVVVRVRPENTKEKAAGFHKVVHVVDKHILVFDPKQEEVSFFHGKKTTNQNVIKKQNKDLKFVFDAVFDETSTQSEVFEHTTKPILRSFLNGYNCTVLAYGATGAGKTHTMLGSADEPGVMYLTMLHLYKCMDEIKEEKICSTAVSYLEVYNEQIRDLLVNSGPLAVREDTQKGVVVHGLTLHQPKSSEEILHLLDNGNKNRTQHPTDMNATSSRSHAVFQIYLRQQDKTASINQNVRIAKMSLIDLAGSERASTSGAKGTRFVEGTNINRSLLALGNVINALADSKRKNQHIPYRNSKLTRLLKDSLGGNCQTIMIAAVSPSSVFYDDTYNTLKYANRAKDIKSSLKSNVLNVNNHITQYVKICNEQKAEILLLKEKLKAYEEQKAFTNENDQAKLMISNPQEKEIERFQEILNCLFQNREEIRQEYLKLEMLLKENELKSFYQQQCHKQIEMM
T1 sequence (P02550 whole entry partner): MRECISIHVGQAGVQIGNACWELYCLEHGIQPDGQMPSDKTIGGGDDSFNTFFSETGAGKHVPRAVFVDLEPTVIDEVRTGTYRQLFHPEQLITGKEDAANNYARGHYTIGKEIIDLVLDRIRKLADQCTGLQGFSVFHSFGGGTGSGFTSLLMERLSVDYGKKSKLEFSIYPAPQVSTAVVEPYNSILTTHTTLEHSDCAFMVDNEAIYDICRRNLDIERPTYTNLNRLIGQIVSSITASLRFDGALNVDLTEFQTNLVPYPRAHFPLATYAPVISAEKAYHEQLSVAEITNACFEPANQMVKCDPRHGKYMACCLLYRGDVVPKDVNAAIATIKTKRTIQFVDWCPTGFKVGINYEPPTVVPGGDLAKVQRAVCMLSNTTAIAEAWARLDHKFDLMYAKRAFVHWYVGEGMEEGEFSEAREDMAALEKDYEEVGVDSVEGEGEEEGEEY
T1 sequence (P02554 whole entry partner): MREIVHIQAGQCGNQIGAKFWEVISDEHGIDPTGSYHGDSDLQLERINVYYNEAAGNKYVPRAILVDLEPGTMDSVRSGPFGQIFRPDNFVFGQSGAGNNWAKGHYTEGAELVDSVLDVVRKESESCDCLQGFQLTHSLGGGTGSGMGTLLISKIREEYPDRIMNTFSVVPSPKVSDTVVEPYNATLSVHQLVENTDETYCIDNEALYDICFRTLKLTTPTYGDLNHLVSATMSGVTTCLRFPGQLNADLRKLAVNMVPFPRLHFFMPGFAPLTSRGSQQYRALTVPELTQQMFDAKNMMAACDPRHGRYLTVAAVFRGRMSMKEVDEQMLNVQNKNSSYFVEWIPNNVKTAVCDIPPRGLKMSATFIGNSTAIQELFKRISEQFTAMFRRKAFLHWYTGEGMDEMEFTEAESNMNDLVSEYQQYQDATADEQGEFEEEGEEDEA

Structure (SMILES)	IC50
CC(C)(CO)Nc1ccc(C(=O)Nc2cccc(N3CCOC(C)(C)C3)n2)c(N2CCC3(CC2)CC3)n1 [Example 130, 2-(6-azaspiro[2.5]oct-6-yl)-N-(6-(2,2-dimethyl-4-morpholinyl)-2-pyridinyl)-6-((2-hydroxy-1,1-dimethylethyl)amino)-3-pyridinecarboxamide]	0.172 µM
CC(C)(C)NS(=O)(=O)c1cccc(NC(=O)c2ncc(NC(C)(C)CO)nc2N2CCC3(CC2)CC3)n1 [Example 102, N-(6-(N-(tert-butyl)sulfamoyl)pyridin-2-yl)-5-((1-hydroxy-2-methylpropan-2-yl)amino)-3-(6-azaspiro[2.5]octan-6-yl)pyrazine-2-carboxamide]	0.0753 µM
CC(C)(C)NS(=O)(=O)c1cccc(NC(=O)c2ccc(NC(C)(CO)CO)nc2N2CCC3(CC2)CC3)n1 [Example 174, 2-(6-azaspiro[2.5]octan-6-yl)-6-((1,3-dihydroxy-2-methyl-2-propanyl)amino)-N-(6-((2-methyl-2-propanyl)sulfamoyl)-2-pyridinyl)-3-pyridinecarboxamide]	0.0622 µM
CC(C)(CO)Nc1cnc(C(=O)Nc2cccc(N3C[C@@H]4C[C@H]3CO4)n2)c(N2CCC3(CC2)CC3)n1 (racemic) [Example 112, N-(6-((1S,4S)-2-oxa-5-azabicyclo[2.2.1]heptan-5-yl)pyridin-2-yl)-5-((1-hydroxy-2-methylpropan-2-yl)amino)-3-(6-azaspiro[2.5]octan-6-yl)pyrazine-2-carboxamide]	0.182 µM
CC(C)(CO)Nc1ccc(C(=O)Nc2cccc(C3=CCOCC3)n2)c(N2CCC3(CC2)CC3)n1 [Example 138, 2-(6-azaspiro[2.5]oct-6-yl)-N-(6-(3,6-dihydro-2H-pyran-4-yl)-2-pyridinyl)-6-((1-hydroxy-2-methyl-2-propanyl)amino)-3-pyridinecarboxamide]	0.0829 µM
CC(C)(C)NS(=O)(=O)c1cccc(NC(=O)c2ncc(N3C(=O)OCC3(C)C)nc2N2CCC3(CC2)CC3)n1 [Example 119, 3-(6-azaspiro[2.5]octan-6-yl)-5-(4,4-dimethyl-2-oxo-1,3-oxazolidin-3-yl)-N-(6-((2-methyl-2-propanyl)sulfamoyl)-2-pyridinyl)-2-pyrazinecarboxamide]	0.817 µM
CC(C)(CO)Nc1cnc(C(=O)Nc2cccc(N3CCO[C@H](CO)C3)n2)c(N2CCC3(CC2)CC3)n1 [Example 120, 3-(6-azaspiro[2.5]octan-6-yl)-N-(6-((2S)-2-(hydroxymethyl)-4-morpholinyl)-2-pyridinyl)-5-((1-hydroxy-2-methyl-2-propanyl)amino)-2-pyrazinecarboxamide]	0.176 µM
C[C@@H]1CN(c2cccc(NC(=O)c3ccc([C@@](C)(O)CO)nc3N3CCC4(CC3)CC4)n2)CCO1 [Example 168, 2-(6-azaspiro[2.5]octan-6-yl)-6-((2R)-1,2-dihydroxy-2-propanyl)-N-(6-((2R)-2-methyl-4-morpholinyl)-2-pyridinyl)-3-pyridinecarboxamide]	0.0887 µM
CC(C)(CO)Nc1ccc(C(=O)Nc2cccc(N3CCCC3=O)n2)c(N2CCC3(CC2)CC3)n1 [Example 134, 2-(6-azaspiro[2.5]oct-6-yl)-6-((2-hydroxy-1,1-dimethylethyl)amino)-N-(6-(2-oxo-1-pyrrolidinyl)-2-pyridinyl)-3-pyridinecarboxamide]	0.204 µM
CC(C)(C)NS(=O)(=O)c1cccc(NC(=O)c2ccc([C@](C)(O)C(F)(F)F)nc2N2CCC3(CC2)CC3)n1 (single isomer, unassigned) [Example 154]	0.105 µM
CC(C)(CO)Nc1cnc(C(=O)Nc2cccc(N3CCOCC3)n2)c(N2CCC3(CC2)CC3)n1 [Example 106, 3-(6-azaspiro[2.5]oct-6-yl)-5-((2-hydroxy-1,1-dimethylethyl)amino)-N-(6-(4-morpholinyl)-2-pyridinyl)-2-pyrazinecarboxamide]	0.0844 µM
C[C@H]1CCN(c2cccc(NC(=O)c3ccc(NC(C)(C)CO)nc3N3CCC4(CC3)CC4)n2)C1 [Example 139, 2-(6-azaspiro[2.5]oct-6-yl)-6-((1-hydroxy-2-methyl-2-propanyl)amino)-N-(6-((3S)-3-methyl-1-pyrrolidinyl)-2-pyridinyl)-3-pyridinecarboxamide]	0.0893 µM
C[C@H]1CN(c2cccc(NC(=O)c3ncc(NC(C)(C)CO)nc3N3CCC4(CC3)CC4)n2)C[C@H](C)O1 (racemic) [Example 111, N-(6-((2S,6S)-2,6-dimethylmorpholino)pyridin-2-yl)-5-((1-hydroxy-2-methylpropan-2-yl)amino)-3-(6-azaspiro[2.5]octan-6-yl)pyrazine-2-carboxamide]	0.11 µM

Now from value to compound:

IC50	Structure (SMILES)
0.062 µM	Cc1cc(NC(=O)c2ccc(NC(C)(CO)CO)nc2N2CCC3(CC2)CC3)nc(N2CCOCC2)c1 [Example 184, 2-(6-azaspiro[2.5]octan-6-yl)-6-((1,3-dihydroxy-2-methyl-2-propanyl)amino)-N-(4-methyl-6-(4-morpholinyl)-2-pyridinyl)-3-pyridinecarboxamide]
0.0688 µM	C[C@@H]1CN(c2cccc(NC(=O)c3ccc(S(N)(=O)=O)nc3N3CCC4(CC3)CC4)n2)CCO1 [Example 224, 2-(6-azaspiro[2.5]octan-6-yl)-N-(6-((2R)-2-methyl-4-morpholinyl)-2-pyridinyl)-6-sulfamoyl-3-pyridinecarboxamide]
0.161 µM	CCC1CN(c2cccc(NC(=O)c3ccc(NC(C)(C)CO)nc3N3CCC4(CC3)CC4)n2)CCO1 (stereo not drawn) [Example 204, N-(6-(2-ethylmorpholino)pyridin-2-yl)-6-((1-hydroxy-2-methylpropan-2-yl)amino)-2-(6-azaspiro[2.5]octan-6-yl)nicotinamide]
0.17 µM	C[C@@H]1CN(c2cccc(NC(=O)c3ccc(NC(C)(C)CCO)nc3N3CCC4(CC3)CC4)n2)CCO1 [Example 214, 2-(6-azaspiro[2.5]octan-6-yl)-6-((4-hydroxy-2-methyl-2-butanyl)amino)-N-(6-((2R)-2-methyl-4-morpholinyl)-2-pyridinyl)-3-pyridinecarboxamide]
0.116 µM	CC(C)(C)NS(=O)(=O)c1cccc(NC(=O)c2ccc([C@@](O)(CO)C(F)(F)F)nc2N2CCC3(CC2)CC3)n1 (single isomer, unassigned) [Example 175]
0.693 µM	CC(C)(CO)Nc1ccc(C(=O)Nc2cccc(N3CCN(C4CC4)CC3)n2)c(N2CCC3(CC2)CC3)n1 [Example 190, 2-(6-azaspiro[2.5]octan-6-yl)-N-(6-(4-cyclopropyl-1-piperazinyl)-2-pyridinyl)-6-((1-hydroxy-2-methyl-2-propanyl)amino)-3-pyridinecarboxamide]
0.758 µM	CC1(C)OCC(c2ccc(C(=O)Nc3cccc(N4CCOCC4)n3)c(N3CCC4(CC3)CC4)n2)(C(F)(F)F)O1 (stereo not drawn) [Example 180, 6-(2,2-dimethyl-4-(trifluoromethyl)-1,3-dioxolan-4-yl)-N-(6-morpholinopyridin-2-yl)-2-(6-azaspiro[2.5]octan-6-yl)nicotinamide]
0.357 µM	CC(C)(CO)Nc1ccc(C(=O)Nc2cccc(N3CCOC(CN)C3)n2)c(N2CCC3(CC2)CC3)n1 (stereo not drawn) [Example 235, N-(6-(2-(aminomethyl)morpholino)pyridin-2-yl)-6-((1-hydroxy-2-methylpropan-2-yl)amino)-2-(6-azaspiro[2.5]octan-6-yl)nicotinamide]
